According to PMC12830207, “Targeting the protein–protein interaction between the CDC37 cochaperone and client kinases by an allosteric RAF dimer breaker” (The Journal of Biological Chemistry, 2025):

Key:
[1] = test system: BRAF–CDC37/HSP90 chaperone complex; assay: Co-IP of BRAF-FLAG with endogenous CDC37–HSP90 chaperone complex; type: cell-based, human (HEK293); conditions: HEK293, 50 μM braftide, 4 h, bortezomib pretreatment, three biological replicates
Procedure: (§1) HEK293 cells were seeded at 1(10)^6 cells per well for a 6-well plate or 5(10)^6 for 10 cm dishes and incubated until 40% to 60% confluency. Transfection was carried out using a 1:3 DNA:PEI-MAX ratio in OPTI-MEM and allowed 48 h for protein expression. For peptide assays, 48 h post-transfection, cells were treated with TAT–braftide carried in OPTI-MEM at indicated concentrations. Cells were harvested in cold PBS. Harvested cells were lysed in 4% SDS or modified radioimmunoprecipitation assay (RIPA) for co-IP experiments. Quantification of total protein by the bicinchoninic acid assay was carried out according to the manufacturer's protocols (Pierce; catalog no.: 23225).
(§2) Transfected HEK293 cells were treated with the indicated treatments and harvested in cold PBS. […] Samples were analyzed via immunoblot.
(§3) Western blot band densities were quantified with ImageJ software (National Institutes of Health) and normalized to the indicated loading control. Statistical significance was determined through one-/two-way ANOVA, where indicated, followed by Tukey's honest significant difference post hoc test with corresponding p values (∗p < 0.05, ∗∗p < 0.002, ∗∗∗p < 0.0002, and ∗∗∗∗p < 0.0001). […]

[2] = test system: CDC37–BRAF interaction; assay: Co-IP of CDC37-FLAG with BRAF-V5 in HEK293; type: cell-based, human (HEK293); conditions: HEK293, 25 μM braftide, bortezomib pretreatment
Procedure: as §1, §2, §3

[3] = test system: CDC37–HSP90 interaction; assay: Co-IP of CDC37-FLAG with HSP90 in HEK293; type: cell-based, human (HEK293); conditions: HEK293, 25 μM braftide, bortezomib pretreatment
Procedure: as §1, §2, §3

[4] = test system: CDC37–CRAF interaction; assay: Co-IP of CDC37-FLAG with CRAF-HA in HCT116; type: cell-based; conditions: HCT116, 5 µM braftide, three biological replicates
[5] = test system: CRAF–CDC37 interaction; assay: NanoBiT luminescence CDC37–RAF interaction reporter assay, CRAF^SmBiT–CDC37^LgBiT; type: cell-based, human (HEK293); conditions: HEK293, 25 μM braftide, 4 h, 1 μM bortezomib pretreatment 5 h, 10 μM furimazine, 470 to 480 nm
Excerpt: NanoBiT cytomegalovirus MCS BiBiT vector, which contains a BRAF N terminal fused with LgBiT and CRAF N terminal fused with SmBiT, was purchased from Promega. CDC37 LgBiT and CRAF SmBiT was generated using the standard Gibson Assembly (NEB HiFi Assembly) using NanoBiT BiBiT as the vector and following primers: 5′ […] 3′, 5′ […] 3′, and CDC37 LgBiT and BRAF SmBiT was generated using the standard Gibson Assembly using NanoBiT BiBiT as the vector and following primers: 5′ […] 3′, 5′ […] 3′. Primers were designed to introduce H20A, N22A, I23A triple mutation within the CDC37 FLAG tag and for NanoBiT construct CDC37(HNI/A) LgBit and BRAF SmBiT. Primers were designed to introduce the desired substitutions. The forward primer sequence was 5′ gccgcc[…] […]
Twenty-four hours post-transfection, cells were trypsinized, pelleted, resuspended in OptiMEM + 4% fetal bovine serum, and reseeded onto a 96-well plate at 5(10)^4 cells per well and then incubated at 37 °C overnight. […] After treatment, 10 μM furimazine substrate was added to each well, and luminescence readings were taken at 470 to 480 nm using a CLARIOstar plate reader. Statistical significance was determined through a paired t test where indicated, followed by Tukey's honest significant difference post hoc test with corresponding p values (∗p < 0.05, ∗∗p < 0.01, and ∗∗∗p < 0.001). […]

[6] = test system: MAPK proteins (BRAF, CRAF, MEK, pMEK, ERK, pERK); assay: Immunoblot of MAPK proteins in HCT116 cells; type: cell-based
Procedure: (§4) Western blot band densities were quantified with ImageJ software (National Institutes of Health) and normalized to the indicated loading control. Statistical significance was determined through one-/two-way ANOVA, where indicated, followed by Tukey's honest significant difference post hoc test with corresponding p values (∗p < 0.05, ∗∗p < 0.002, ∗∗∗p < 0.0002, and ∗∗∗∗p < 0.0001). All graph bars represent the mean ± SD with individual data points per biological replicate with corresponding p values.

[7] = test system: selected kinases in HCT116 cells; assay: Immunoblot of selected kinases in HCT116 cells; type: cell-based; conditions: Western blot; for protein levels of Chk2, PKCδ, and SRPK1: HCT116, braftide, Fig. S12A
Procedure: as §4

[8] = test system: HCT116 cells; assay: WST-1 cell viability assay, HCT116; type: cell-based; conditions: HCT116, WST-1, 24 h
Procedure: HCT116 and WM3629 cells were seeded onto polylysine-coated, clear-bottomed, 96-well plates at 15(10)^3 cells per well and allowed to incubate for 24 h. Cells were treated with braftide and 17-AAG mixtures at indicated concentrations for 24 h (37 °C). The WST-1 cell viability assay was carried out according to the manufacturer's protocols (Roche; 11644807001) for 4 h, and absorbance readings were taken at 450 nM in a CLARIOstar plate reader. For the dose–response curves of braftide and 17-AAG, the data were fit to the 4-parameter logistic equation (dose–response fitting equation) in GraphPad Prism (Dotmatics): y=A1+(A2−A1)÷(1+10^(LOGx0−x)p)
Error bars are indicative of the SEM of each point.

[9] = test system: HCT116 cells; conditions: HCT116, previously reported, readout not given; read-out: EC50, braftide, HCT116; cited from earlier work
Excerpt: Our findings highlight the therapeutic potential of targeting CDC37–client kinase interactions, as oncogenic kinases are intrinsically unstable and thus are more dependent on their association with the HSP90–CDC37 chaperone complex for stability and activation compared with their wildtype counterparts ([4]). […] HCT116 cells harbor an upstream KRAS […]–activating mutation, with a previously reported braftide ...

[10] = test system: BRAF–CRAF protein levels; conditions: cited from earlier work
Excerpt: RAF family members are known clients of the HSP90–CDC37 chaperone complex and rely on their interaction with the CDC37–HSP90 chaperone complex to maintain basal protein stability ([4]). […] Although the HSP90 and CDC37 interface is vast and dynamic ([7]), the αC helix–β4 loop is a well-defined structural motif conserved across RAF and other kinases ([29]). The RAF DIF, being ...

GRKKRRQRRRPQ-miniPEG-TRHVNILLFM [Braftide]
association of BRAF with CDC37 and HSP90 [1]: reduced their association with CDC37 and HSP90 compared with the nontreated control
CDC37–BRAF complex [2]: reduced the CDC37–client BRAF–CRAF complex
CDC37–HSP90 interaction [3]: maintaining the CDC37–HSP90 interaction
CDC37–CRAF interaction [4]: decreases its association with coimmunoprecipitated BRAF-V5 and CRAF-HA
CDC37–CRAF interaction ([4]; listed as braftide): reduced the CDC37–RAF interaction at lower doses than in HEK293 cells
NanoBiT luminescence, CRAF^SmBiT–CDC37^LgBiT [5]: reduction in luminescence, reflecting a decrease in the CDC37–RAF interaction
inhibition by monotherapy at 500 nM ([6]; HCT116, 500 nM single agent, immunoblot): Neither 17-AAG nor braftide monotherapy exhibited obvious inhibition
MAPK pathway protein levels, proteomics samples ([6]; HCT116, 10 µM braftide, 1 hr, 37°C, n=3): decreases MAPK pathway protein levels
protein expression levels of downregulated kinases ([7]; HCT116, 10 μM braftide, 1 h, n = 9): reduced protein expression levels of GSK3α, S6, AKT1, TAK, FAK, BRAF, CRAF, MEK1/2, and ERK1/2
protein levels of Chk2, PKCδ, and SRPK1 [7]: unaffected by Braftide treatment
protein levels of Chk2, PKCδ, and SRPK1 ([7]; listed as braftide): protein levels of these kinases remain unchanged after braftide treatment
synergy of braftide and 17-AAG, HCT116 [8]: synergy between braftide and 17-AAG
EC50 [9]: 7.1 ± 0.5 µM
degradation of BRAF–CRAF protein levels [10]: induces the degradation of BRAF–CRAF protein levels through the ubiquitin-26s proteasomal degradation system
